# Measurements from PMC7441537 (Journal of medicinal chemistry, 2019).
# Marks after values point to notes of the source that are not given here.
# Legend:
# in vitro = conditions: human
# [1] = tested on: NNRTI-resistant strain K103N+Y181C (RES056); conditions: MT-4 cells
# WT HIV-1 (IIIB) = conditions: MT-4 cells
# WT HIV-1 (NL4-3) = experiment: Anti-HIV-1 activity against wild-type NL4-3 in TZM-bl cell lines
# HIV-1 E138K = type: cell-based; conditions: MT-4 cells; CC50/EC50
# HIV-1 Y181C = type: cell-based; conditions: MT-4 cells; CC50/EC50
# HIV-1 K103N = type: cell-based; conditions: MT-4 cells; CC50/EC50
# HIV-1 Y188L = type: cell-based; conditions: MT-4 cells; CC50/EC50
# HIV-1 L100I = type: cell-based; conditions: MT-4 cells; CC50/EC50
# HIV-1 F227L+V106A = type: cell-based; conditions: MT-4 cells; CC50/EC50
Compound,SI RES056 (CC50/EC50) [1],SI IIIB (CC50/EC50) (WT HIV-1 (IIIB)),SI (CC50/EC50) NL4-3 (WT HIV-1 (NL4-3)),other results
"Cc1cc(C#N)cc(C)c1Oc1nc(N[C@@H]2CCN(Cc3ccc(C(N)=O)cc3)C2)nc2ccsc12 [8c2, (R)-4-((3-((4-(4-Cyano-2,6-dimethylphenoxy)thieno[3,2-d]-pyrimidin-2-yl)amino)pyrrolidin-1-yl)methyl)benzamide]",–,–,–,CC50 (in vitro): > 250 nM
"Cc1cc(C#N)cc(C)c1Oc1nc(NC2CCN(Cc3cccc(C(N)=O)c3)CC2)nc2c1SCC2 [13a6, 3-((4-((4-(4-Cyano-2,6-dimethylphenoxy)-6,7-dihydrothieno[3,2-d]pyrimidin-2-yl)amino)piperidin-1-yl)methyl)benzamide]",≥355,≥8048,–,–
"Cc1cc(C#N)cc(C)c1Oc1nc(NC2CCN(Cc3ccc(S(N)(=O)=O)cc3)CC2)nc2c1CCCC2 [13e1, 4-((4-((4-(4-Cyano-2,6-dimethylphenoxy)-5,6,7,8-tetrahydroquinazolin-2-yl)amino)piperidin-1-yl)methyl)benzenesulfonamide]",>342,>37879,–,–
"Cc1cc(C#N)cc(C)c1Oc1nc(NC2CCN(Cc3ccc(S(C)(=O)=O)cc3)CC2)nc2c1SCCC2 [13f3, 3,5-Dimethyl-4-((2-((1-(4-(methylsulfonyl)benzyl)piperidin-4-yl)amino)-7,8-dihydro-6H-thiopyrano[3,2-d]pyrimidin-4-yl)oxy)benzonitrile]",≥34.6,≥872,–,–
"Cc1cc(C#N)cc(C)c1Oc1nc(NC2CCN(Cc3ccncc3)CC2)nc2c1CCC2 [13d4, 3,5-Dimethyl-4-((2-((1-(pyridin-4-ylmethyl)piperidin-4-yl)amino)-6,7-dihydro-5H-cyclopenta[d]pyrimidin-4-yl)oxy)benzonitrile]",>5020,>147059,–,–
"Cc1cc(C#N)cc(C)c1Oc1nc(NC2CCN(Cc3ccc(C(N)=O)cc3)CC2)nc2c1SCCC2 [13f2, 4-((4-((4-(4-Cyano-2,6-dimethylphenoxy)-7,8-dihydro-6H-thiopyrano[3,2-d]pyrimidin-2-yl)amino)piperidin-1-yl)methyl)benzamide]",>476,>14767,–,–
"Cc1cc(C#N)cc(C)c1Oc1nc(NC2CC3CCC(C2)N3Cc2ccc(C(N)=O)cc2)nc2ccsc12 (stereo not drawn) [8b2, 4-((3-((4-(4-Cyano-2,6-dimethylphenoxy)thieno[3,2-d]-pyrimidin-2-yl)amino)-8-azabicyclo[3.2.1]octan-8-yl)methyl)benzamide]",–,–,X1^d,–
"Cc1cc(C#N)cc(C)c1Oc1nc(NC2CCN(Cc3ccc(C(N)=O)cc3)CC2)nc2c1CCCC2 [13e2, 4-((4-((4-(4-Cyano-2,6-dimethylphenoxy)-5,6,7,8-tetrahydroquinazolin-2-yl)amino)piperidin-1-yl)methyl)benzamide]",>799,>38709,–,–
"Cc1cc(C#N)cc(C)c1Oc1nc(N[C@@H]2CCN(Cc3ccc(S(C)(=O)=O)cc3)C2)nc2ccsc12 [8c4, (R)-3,5-Dimethyl-4-((2-((1-(4-(methylsulfonyl)benzyl)pyrrolidin-3-yl)amino)thieno[3,2-d]pyrimidin-4-yl)oxy)benzonitrile]",–,–,–,CC50 (in vitro): > 234 nM
"Cc1cc(C#N)cc(C)c1Oc1nc(N[C@H]2CCN(Cc3ccc(S(N)(=O)=O)cc3)C2)nc2ccsc12 [8d1, (S)-4-((3-((4-(4-Cyano-2,6-dimethylphenoxy)thieno[3,2-d]-pyrimidin-2-yl)amino)pyrrolidin-1-yl)methyl)benzenesulfonamide]",–,–,–,CC50 (in vitro): > 233 nM
"Cc1cc(C#N)cc(C)c1Oc1nc(N[C@@H]2CCN(Cc3cccc(C(N)=O)c3)C2)nc2ccsc12 [8c3, (R)-3-((3-((4-(4-Cyano-2,6-dimethylphenoxy)thieno[3,2-d]-pyrimidin-2-yl)amino)pyrrolidin-1-yl)methyl)benzamide]",–,–,–,CC50 (in vitro): > 250 nM
"Cc1cc(C#N)cc(C)c1Oc1nc(NC2CCN(Cc3ccc(S(N)(=O)=O)cc3)CC2)nc2c1SCCC2 [13f1, 4-((4-((4-(4-Cyano-2,6-dimethylphenoxy)-7,8-dihydro-6H-thiopyrano[3,2-d]pyrimidin-2-yl)amino)piperidin-1-yl)methyl)benzenesulfonamide]",≥3650,≥54889,–,SI E138K (HIV-1 E138K): ≥ 17435; SI Y181C (HIV-1 Y181C): ≥ 14250; SI K103N (HIV-1 K103N): ≥ 28500; SI Y188L (HIV-1 Y188L): ≥ 18525; SI L100I (HIV-1 L100I): ≥ 11488; SI F227L+V106A (HIV-1 F227L+V106A): ≥ 6645
"Cc1cc(C#N)cc(C)c1Oc1nc(N[C@H]2CCN(Cc3ccncc3)C2)nc2ccsc12 [8d5, (S)-3,5-Dimethyl-4-((2-((1-(pyridin-4-ylmethyl)pyrrolidin-3-yl)amino)thieno[3,2-d]pyrimidin-4-yl)oxy)benzonitrile]",–,–,–,CC50 (in vitro): > 273 nM
"Cc1cc(C#N)cc(C)c1Oc1nc(NC2CCN(Cc3ccc([N+](=O)[O-])cc3)CC2)nc2c1COC2 [13c5, 3,5-Dimethyl-4-((2-((1-(4-nitrobenzyl)piperidin-4-yl)amino)-5,7-dihydrofuro[3,4-d]pyrimidin-4-yl)oxy)benzonitrile]",≥22,≥1497,–,–
"Cc1cc(C#N)cc(C)c1Oc1nc(NC2CCCN(Cc3ccc(S(N)(=O)=O)cc3)CC2)nc2ccsc12 (stereo not drawn) [8a1, 4-((4-((4-(4-Cyano-2,6-dimethylphenoxy)thieno[3,2-d]-pyrimidin-2-yl)amino)azepan-1-yl)methyl)benzenesulfonamide]",–,–,>100,–
"Cc1cc(C#N)cc(C)c1Oc1nc(NC2CC3CCC(C2)N3Cc2ccc(S(C)(=O)=O)cc2)nc2ccsc12 (stereo not drawn) [8b4, 3,5-Dimethyl-4-((2-((8-(4-(methylsulfonyl)benzyl)-8-azabicyclo[3.2.1]octan-3-yl)amino)thieno[3,2-d]pyrimidin-4-yl)oxy)benzonitrile]",–,–,X1^d,–
"Cc1cc(C#N)cc(C)c1Oc1nc(NC2CC3CCC(C2)N3Cc2cccc(C(N)=O)c2)nc2ccsc12 (stereo not drawn) [8b3, 3-((3-((4-(4-Cyano-2,6-dimethylphenoxy)thieno[3,2-d]-pyrimidin-2-yl)amino)-8-azabicyclo[3.2.1]octan-8-yl)methyl)benzamide]",–,–,X1^d,–
"Cc1cc(C#N)cc(C)c1Oc1nc(NC2CCN(Cc3ccc(NS(C)(=O)=O)cc3)CC2)nc2c1CSC2 [13b5, N-(4-((4-((4-(4-Cyano-2,6-dimethylphenoxy)-5,7-dihydrothieno[3,4-d]pyrimidin-2-yl)amino)piperidin-1-yl)methyl)phenyl)methanesulfonamide]",>42,>19670,–,–
"Cc1cc(C#N)cc(C)c1Oc1nc(NC2CCN(Cc3ccc(C(N)=O)cc3)CC2)nc2c1CCC2 [13d2, 4-((4-((4-(4-Cyano-2,6-dimethylphenoxy)-6,7-dihydro-5H-cyclopenta[d]pyrimidin-2-yl)amino)piperidin-1-yl)methyl)benzamide]",>1448,>40984,–,–
"Cc1cc(C#N)cc(C)c1Oc1nc(NC2CCN(Cc3ccncc3)CC2)nc2c1SCC2 [13a4, 3,5-Dimethyl-4-((2-((1-(pyridin-4-ylmethyl)piperidin-4-yl)amino)-6,7-dihydrothieno[3,2-d]pyrimidin-4-yl)oxy)benzonitrile]",≥2305,≥40104,–,–
"Cc1cc(C#N)cc(C)c1Oc1nc(N[C@H]2CCN(Cc3cccc(C(N)=O)c3)C2)nc2ccsc12 [8d3, (S)-3-((3-((4-(4-Cyano-2,6-dimethylphenoxy)thieno[3,2-d]-pyrimidin-2-yl)amino)pyrrolidin-1-yl)methyl)benzamide]",–,–,X1^d,–
"Cc1cc(C#N)cc(C)c1Oc1nc(NC2CC3CCC(C2)N3Cc2ccncc2)nc2ccsc12 (stereo not drawn) [8b5, 3,5-Dimethyl-4-((2-((8-(pyridin-4-ylmethyl)-8-azabicyclo-[3.2.1]octan-3-yl)amino)thieno[3,2-d]pyrimidin-4-yl)oxy)benzonitrile]",–,–,X1^d,–
"Cc1cc(C#N)cc(C)c1Oc1nc(NC2CC3CCC(C2)N3Cc2ccc(S(N)(=O)=O)cc2)nc2ccsc12 (stereo not drawn) [8b1, 4-((3-((4-(4-Cyano-2,6-dimethylphenoxy)thieno[3,2-d]-pyrimidin-2-yl)amino)-8-azabicyclo[3.2.1]octan-8-yl)methyl)benzenesulfonamide]",–,–,X1^d,–
"Cc1cc(C#N)cc(C)c1Oc1nc(NC2CCCN(Cc3ccc(C(N)=O)cc3)CC2)nc2ccsc12 (stereo not drawn) [8a2, 4-((4-((4-(4-Cyano-2,6-dimethylphenoxy)thieno[3,2-d]-pyrimidin-2-yl)amino)azepan-1-yl)methyl)benzamide]",–,–,X1^d,–
"Cc1cc(C#N)cc(C)c1Oc1nc(NC2CCN(Cc3ccc(N)cc3)CC2)nc2c1CSC2 [13b4, 4-((2-((1-(4-Aminobenzyl)piperidin-4-yl)amino)-5,7-dihydrothieno[3,4-d]pyrimidin-4-yl)oxy)-3,5-dimethylbenzonitrile]",>364,>30377,–,–
"Cc1cc(C#N)cc(C)c1Oc1nc(NC2CCN(Cc3ccc(S(C)(=O)=O)cc3)CC2)nc2c1CCCC2 [13e3, 3,5-Dimethyl-4-((2-((1-(4-(methylsulfonyl)benzyl)piperidin-4-yl)amino)-5,6,7,8-tetrahydroquinazolin-4-yl)oxy)benzonitrile]",>4032,>33333,–,–
